Source: patent publication US9115139B2, “Pyrazinooxazepine derivatives” (TAKEDA PHARMACEUTICAL COMPANY LIMITED, priority 2009, dated 2015)

Target: serotonin 5-HT2C receptor (VSV type isoform, stably expressing CHO cell) (Homo sapiens, UniProt P28335, I156V/I160V/N158S)
Format: cell-based

Sequence of serotonin 5-HT2C receptor (VSV type isoform, stably expressing CHO cell) (P28335 33-458 I156V/N158S/I160V limits assumed): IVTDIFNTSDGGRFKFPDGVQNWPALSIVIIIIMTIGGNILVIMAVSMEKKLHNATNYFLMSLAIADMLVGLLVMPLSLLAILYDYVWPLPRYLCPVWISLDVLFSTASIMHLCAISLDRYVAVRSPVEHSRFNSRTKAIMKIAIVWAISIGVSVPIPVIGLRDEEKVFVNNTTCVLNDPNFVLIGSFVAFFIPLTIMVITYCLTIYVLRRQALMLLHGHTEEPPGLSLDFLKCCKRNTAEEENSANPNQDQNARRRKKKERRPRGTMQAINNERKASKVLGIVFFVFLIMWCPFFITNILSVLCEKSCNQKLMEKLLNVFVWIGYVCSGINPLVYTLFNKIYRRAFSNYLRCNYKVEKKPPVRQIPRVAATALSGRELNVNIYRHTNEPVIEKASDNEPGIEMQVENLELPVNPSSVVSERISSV

SMILES	ratio (%) relative to maximum response by 5-HT (1 μM)
CC(C)Oc1cnc2c(n1)OCCNC2.Cl [Example 2, 3-(1-methylethoxy)-6,7,8,9-tetrahydropyrazino[2,3-f][1,4]oxazepine hydrochloride]	93%
Cl.c1nc2c(nc1C1CC1)OCCNC2 [Example 10, 3-cyclopropyl-6,7,8,9-tetrahydropyrazino[2,3-f][1,4]oxazepine hydrochloride]	89%
C[C@@H]1COCCN1c1cnc2c(n1)OCCNC2.Cl [Example 5, 3-[(3R)-3-methylmorpholin-4-yl]-6,7,8,9-tetrahydropyrazino[2,3-f][1,4]oxazepine hydrochloride]	95%
CC(C)N(C)c1cnc2c(n1)OCCNC2.Cl [Example 8, N-methyl-N-(1-methylethyl)-6,7,8,9-tetrahydropyrazino[2,3-f][1,4]oxazepin-3-amine hydrochloride]	95%
